Results taken from ChEMBL document CHEMBL1201862, “PubChem BioAssay data set” (2004).
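Following 48 hours of exposure in 96-well plates, responses at five concentrations were used to interpolate endpoints linearly. The concentration for 50% growth inhibition is given as GI50.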 The source made the active and inactive calls. No stated cut-off is given here; in the data, active = GI50 up to about 1.1 µM and inactive = higher.

What was measured:
Assay in all cases: growth of human tumour cells (NCI), 48 h
[1] = system: OVCAR-4
[2] = system: HOP-92
[3] = system: OVCAR-5
[4] = system: TK-10
[5] = system: SK-MEL-2
[6] = system: HCT-116
[7] = system: HT-29
[8] = system: LOX IMVI
[9] = system: MCF7
[10] = system: SNB-19
[11] = system: HOP-62
[12] = system: U-251
[13] = system: NCI/ADR-RES
[14] = system: HCT-15
[15] = system: KM12
[16] = system: ACHN
[17] = system: SF-539
[18] = system: EKVX
[19] = system: OVCAR-3
[20] = system: IGROV-1

| SMILES | GI50 [1] | GI50 [2] | GI50 [3] | GI50 [4] | GI50 [5] | GI50 [6] | GI50 [7] | GI50 [8] | GI50 [9] | GI50 [10] | GI50 [11] | GI50 [12] | GI50 [13] | GI50 [14] [µM] | GI50 [15] | GI50 [16] | GI50 [17] | GI50 [18] | GI50 [19] | GI50 [20] |
| --- | --- | --- | --- | --- | --- | --- | --- | --- | --- | --- | --- | --- | --- | --- | --- | --- | --- | --- | --- | --- |
| CC1(C)OC[C@@H]([C@H](O)C2C=CC(=O)S2)O1 (some centres undefined) | 42.1 µM (inactive) | 22.4 µM (inactive) | 63.7 µM (inactive) | 44.9 µM (inactive) | 20.3 µM (inactive) | 14.3 µM (inactive) | 23.6 µM (inactive) | 15.7 µM (inactive) | 30.2 µM (inactive) | 43.6 µM (inactive) | 47.9 µM (inactive) | 27.7 µM (inactive) | 21.5 µM (inactive) | 19.8 | 14.6 µM (inactive) | 19.2 µM (inactive) | 27.4 µM (inactive) | 31 µM (inactive) | 50.5 µM (inactive) | – |
| Cc1ccc(C)n1-c1ccccc1C1C=Cn2c3c1c(=O)c(OC(C)C)c(OC(C)C)c-3n[nH]c2=O (centres undefined) | 38.9 µM (inactive) | 84.7 µM (inactive) | > 100 µM (inactive) | 44 µM (inactive) | 20 µM (inactive) | 19.2 µM (inactive) | 19.9 µM (inactive) | 25.9 µM (inactive) | 22.2 µM (inactive) | 76.2 µM (inactive) | 40 µM (inactive) | 32.7 µM (inactive) | 32.6 µM (inactive) | 21.7 | 19.9 µM (inactive) | 45.8 µM (inactive) | 58.3 µM (inactive) | 28.4 µM (inactive) | 35.5 µM (inactive) | 30.1 µM (inactive) |
| C[C@H]1[C@H]2[C@H]3CC[C@@H]4[C@@]5(C)CC[C@H](O)C(C)(C)[C@@H]5CC[C@@]4(C)[C@]3(C)C[C@H](O)[C@@]2(C)C[C@H]2O[C@]21C | 25.1 µM (inactive) | 17.7 µM (inactive) | 24.6 µM (inactive) | 22.3 µM (inactive) | 19 µM (inactive) | 16.1 µM (inactive) | 14.3 µM (inactive) | 16.4 µM (inactive) | 16.5 µM (inactive) | 20.6 µM (inactive) | 20.7 µM (inactive) | 17.2 µM (inactive) | 18.5 µM (inactive) | 20.1 | 19.8 µM (inactive) | 15.2 µM (inactive) | 18.8 µM (inactive) | 24.2 µM (inactive) | 16.4 µM (inactive) | 27.4 µM (inactive) |
